{"source": "patent US20080248008A1", "about": "“Inhibitors of Protein Kinase a Anchoring” (priority 2004, published 2008)", "key": {"[1]": {"molecular_target": "T1, PKA type I in lipid rafts of human peripheral blood T cells (Homo sapiens, UniProt P10644)", "T1 construct": "endogenous in cells; host or cells: human peripheral blood T cells", "assay": "PKA type I content of lipid rafts from human T cells (immunoblot densitometry)", "assay_type": "cell-based", "conditions": "n=4; for reduction of PKA type I in lipid rafts: 12 hours", "experimental": "Lipid Raft Purification. Isolation of lipid rafts or glycolipid-enriched membrane microdomains was performed as described in detail elsewhere (Zhang, W. et al., 1998, Immunity 9:239-246). In brief, cells were homogenized in 1 ml ice-cold lysis buffer (50 mM Hepes, pH 7.4, 100 mM NaCl, 5 mM EDTA, […], 10 mM sodium pyrophosphate, 1 mM Na3VO4, 50 mM NaF, 1 mM PMSF, and protease inhibitors) by 10 pestle strokes in a Dounce homogenizer, loaded at the bottom of a 40-5% sucrose gradient and centrifuged at 200,000 g for 5 or 20 h. 80 μl or 0.4-ml fractions were collected from the top. The fractions were analysed by immunoblot analysis. LAT was used as a marker for lipid raft fractions.\nIsolation of T cells. Human peripheral blood T cells were purified by negative selection (95-98% pure) as described (Aandahl E M et al., 1998, FASEB J. 12:855-62). Lipid Raft Purification. Isolation of lipid rafts or glycosphingolipid-enriched membrane microdomains from T cells was performed by small scale ultracentrifugation. In brief, 20 million cells were homogenized in 250 μl ice-cold lysis buffer (50 mM Hepes, pH 7.4, 100 mM NaCl, 5 mM EDTA, […], 10 mM sodium pyrophosphate, 1 mM Na3VO4, 50 mM NaF, 1 mM PMSF, and protease inhibitors) by 10 pestle strokes in a Dounce homogenizer, loaded at the bottom of a 40 to 50 sucrose gradient and centrifuged at 200,000 g for 5 h. 80 μl fractions were collected from the top. The fractions were analysed by immunoblot analysis. LAT was used as a marker for lipid raft fractions. […]\nLipid rafts were purified from isolated human peripheral blood T cells treated with MEME3-Arg11 or SM3-Arg11 for 12 hours, followed by 10% PAGE and blotting onto a PVDF membrane and immunoblotting (FIG. 18, left panel). The PKA content was measured by densitometry of immunoblots (n=4). […] The very weak signal observed after immunoblotting using antibodies against RIIα (data not shown) was measured by densitometry of the autoradiogram. […]"}, "[2]": {"test_system": "human peripheral blood T cells", "assay": "IL-2 production assay in T cells (ELISA)", "assay_type": "cell-based", "experimental": "IL-2 production. T cells were cultured and activated by 10 or 50 μM Sp-8-Br-cAMPs (a cAMP agonist) for 15 minutes before the T cells were activated by anti-CD3/anti-CD28 beads (Dynal) for 20 hours. Cell free supernatants were harvested and stored at −80° C. until analsysed. The IL-2 levels were determined by Elisa (R & D Systems, Europe Ltd., UK):\nIL-2 production Assay. Primary T cells were stimulated or not with anti-CD3/anti-CD28 coated beads (Dynal, cat. no. 111.31) for 20 hours, thereafter supernatants were harvested and the concentration of IL-2 was assessed by ELISA (R&D Systems, cat. no D2050). When used, 8-CPT-cAMP was added for 15 minutes before CD3/CD28 treatment.\nTo examine the effect of MEME3 on cytokine production, IL-2 levels in medium from human peripheral blood T cells treated with MEME3-Arg11 were measured by ELISA. First, cells were treated with MEME3-Arg11 for 12 hours, thereafter the PKA inhibitory pathway was activated by 10 or 50 μM Sp-8-Br-cAMPs (a cAMP agonist) for 15 minutes before the T cells were activated by CD3/CD28 stimulation (FIG. 21)."}, "[3]": {"test_system": "Y1 adrenal cells", "assay": "Progesterone production in Y1 adrenal cells", "assay_type": "cell-based, mouse", "conditions": "Actinomycin D treated cells", "experimental": "Mouse adrenocortical Y1 cells were obtained from ATCC (Cat. No. CCL-79) and maintained in DMEM/HAM'S F-12 (Cat. No. E15-813, PAA Laboratories GmbH, Pasching, Austria) supplemented with 100 μg/ml streptomycin, 100 U/ml penicillin and 10% (v/v) fetal calf serum in a humidified atmosphere of 5% CO2 and split by trypsination at less than 80% confluence.\nProgesterone production and StAR protein level. Y1 cells were cultured overnight in 6-well plates at the density of 1.5×10^6 cells per well. To increase the basal level of StAR, the cells were pre-stimulated with 10 μM forskolin for 1 hour, washed twice with medium, before peptide loading. Thereafter, the cells were loaded with 50 μM of the arginine-coupled peptide for 5 hours before being treated with 5 μg/ml Actinomyocin D (Cat. No. A-9415, Sigma) for 30 min and stimulated with 10 μM forskolin (Cat. No. 344270, Calbiochem) or 10 IU/ml ACTH (Cat. No. A-6303, Sigma) for 12 hours. […] Progesterone in the cell medium was measured by using either Spectria Progesterone RIA (Cat. No. 68521, Orion Diagnostica, Espoo, Finland) or DELFIA progesterone kit (Cat. No. A066-101, PerkinElmer) following the conditions recommended by the manufacture. The cells were lysed and the StAR protein was analysed by western blotting and the level measured by densiometric analysis."}}, "data": [{"substance": "LEQYANQLADQIIKEATERRRRRRRRRrr [MEME3-Arg11]", "values": [{"measurement": "reduction of PKA type I in lipid rafts", "setting": "[1]; 10 μM", "value": 80, "unit": "%"}, {"measurement": "reduction of RI and C concentration in lipid rafts compared to SM3", "setting": "[1]; 10 μM, primary human T cells", "value": 80, "unit": "%"}, {"measurement": "reduction of PKA type I in lipid rafts", "setting": "[1]; 25 μM", "value": 90, "unit": "%"}, {"measurement": "increase in IL-2 production", "setting": "[2]; 10 μM, relative to untreated T cells", "value": 2.5, "unit": "fold"}, {"measurement": "IL-2 levels", "setting": "[2]; 12 hours peptide, Sp-8-Br-cAMPs, CD3/CD28 stimulation", "value": "increased in samples treated with MEME3-Arg11 in a concentration-dependent manner"}, {"measurement": "inhibition relative to that with mutated PKA phosphorylation site in StAR", "setting": "[3]", "value": "approximately 80%"}, {"measurement": "reduction of progesterone production compared to SM3-Arg11", "setting": "[3]; forskolin", "value": 60, "unit": "%"}]}]}
